Reference: US12599597B2, “Substituted N-benzhydrylacetamide inhibitors of jumanji domain histone demethylases for the treatment of cancer” (University of Kentucky Research Foundation, priority 2020, dated 2026)

Tests used:
[1] = test system: histone methylation in HEK293T cells; test: Histone methylation in HEK293T cells; type: cell-based; details: 5 μM
Protocol: To determine if 58B1 regulates Wnt signaling through epigenetic mechanism, the effects of 58B1 on histone methylation were analyzed. […] Similar results were found in LS174T colon cancer cells. H3K9 and H3K27 methylations are negative regulators of transcription. Without wishing to be bound by theory, it is believed that 58B1 inhibited Wnt signaling by increasing H3K9 or H3K27 methylation on Wnt target gene promotors.

[2] = test system: CRC organoids from Apc^f/+/Kras^LSL-G12D/Villin-Cre mice; test: Mouse CRC organoids formation; type: cell-based; details: 3 μM; p<0.01
Protocol: FIGS. 11A-B show an image and a graph illustrating mouse CRC organoids. (A) CRC organoids from Apc^f/+/Kras^LsL-G12D/Villin-Cre mice. (B) CBA-1 (3 μM) inhibited CRC organoids (*p<0.01; n=3).
CRC organoids models. To analyze the effects of CBA-1 in CRC, a colon cancer organoid model was established from Apc^f/+/Kras^LSL-G12D/Villin-Cre mice (FIG. 11A).

## CCCC(=O)NC(c1ccc(N(CC)CC)cc1)c1cc(Cl)c2cccnc2c1O (centres unmarked) [58B1]
[1]
  H3K4me^2: not
  H3K9Me^3: induced
  H3K9 dimethylation (H3K9Me^2): strongly induced
  H3K27Me^3: induced
[2]
  mouse CRC organoids formation: significantly inhibited
